# In patent US8962608B2, “Cycloalkylnitrile pyrazole carboxamides as janus kinase inhibitors” (Merck Sharp & Dohme Corp., priority 2011, dated 2015):
# Molecular target: JAK2 (recombinant purified GST-tagged catalytic domain) (Homo sapiens (Human), UniProt O60674)
# Test: biochemical
# 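Also: biochemical JAK kinase assay with HTRF detection.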
# Sequence of JAK2 (recombinant purified GST-tagged catalytic domain) (O60674 849-1124): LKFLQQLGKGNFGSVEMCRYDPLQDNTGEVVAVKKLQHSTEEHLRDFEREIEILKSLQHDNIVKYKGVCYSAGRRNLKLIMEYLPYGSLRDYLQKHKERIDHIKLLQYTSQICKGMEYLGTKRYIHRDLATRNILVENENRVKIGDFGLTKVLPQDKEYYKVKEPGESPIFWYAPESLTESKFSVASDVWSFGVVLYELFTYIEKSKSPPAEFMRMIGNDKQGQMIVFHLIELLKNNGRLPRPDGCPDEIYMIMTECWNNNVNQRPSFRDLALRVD
row,Structure (SMILES),IC50 [nM]
1,"N#C[C@H]1C[C@@H](N2CCC2)CC[C@@H]1n1cc(C(N)=O)c(Nc2ccc(Cl)c(F)c2)n1 (single isomer, unassigned) [Example 28-36, 1-[(1S,2S,4S or 1R,2R,4R)-4-azetidin-1-yl-2-cyanocyclohexyl]-3-[(4-chloro-3-fluorophenyl)amino]-1H-pyrazole-4-carboxamide]",84
2,"CN(C)[C@@H]1CC[C@H](n2cc(C(N)=O)c(Nc3ccc(OC(F)(F)F)cc3)n2)[C@@H](C#N)C1 (single isomer, unassigned) [Example 28-54, 1-[(1S,2S,4R or 1R,2R,4S)-2-cyano-4-(dimethylamino)cyclohexyl]-3-{[4-(trifluoromethoxy)phenyl]amino}-1H-pyrazole-4-carboxamide]",92
3,"CC(N[C@@H]1CC[C@H](n2cc(C(N)=O)c(Nc3ccc(S(=O)(=O)C(F)(F)F)cc3)n2)[C@@H](C#N)C1)C1CC1 (single isomer, unassigned) [Example 28-177, 1-[(1S,2S,4R or 1R,2R,4S)-2-cyano-4-{[(1S)-1-cyclopropylethyl]amino}cyclo-hexyl]-3-({4-[(trifluoromethyl)sulfonyl]phen-yl]amino)-1H-pyrazole-4-carboxamide]",43
4,"N#C[C@H]1CCCC[C@@H]1n1cc(C(N)=O)c(Nc2ccc(OC(F)F)nc2)n1 (racemic) [Example 17-102, 1-[(1S,2S and 1R,2R)-2-cyanocyclohexyl]-3-{[6-(difluoromethoxy)pyridin-3-yl]amino}-1H-pyrazole-4-carboxamide]",39
5,"N#C[C@H]1C[C@@H](NCC2CC2)CC[C@@H]1n1cc(C(N)=O)c(Nc2ccc(S(=O)(=O)C(F)(F)F)cc2)n1 (single isomer, unassigned) [Example 28-172, 1-{(1S,2S,4S or 1R,2R,4R)-2-cyano-4-[(cyclopropylmethyl)amino]cyclo-hexyl}-3-({4-[(trifluoromethyl)sulfonyl]phen-yl}amino)-1H-pyrazolc-4-carboxamide]",8
6,"C[C@H](N[C@@H]1CC[C@H](n2cc(C(N)=O)c(Nc3ccc(S(=O)(=O)C(F)(F)F)cc3)n2)[C@@H](C#N)C1)C1CC1 (single isomer, unassigned) [Example 28-185, 1-[(1S,2S,4R or 1R,2R,4S)-2-cyano-4-{[(1S)-1-cyclopropylethyl]amino}cyclo-hexyl]-3-({4-[(trifluoromethyl)sulfonyl]phen-yl}amino)-1H-pyrazole-4-carboxamide]",83
7,"CC(C)(C)OC(=O)N[C@@H]1CC[C@H](C#N)C(n2cc(C(N)=O)c(Nc3ccc(F)cc3)n2)C1 (single isomer, unassigned) [Example 44-1, tert-Butyl[(1R,3S,4S or 1S,3R,4R)-3-{4-carbamoyl-3-[(4-fluorophenyl)amino]-1H-pyrazol-1-yl}-4-cyanocyclohexyl]carbamate]",43
8,"CN(C)[C@H]1CC[C@@H](n2cc(C(N)=O)c(Nc3ccc(C(F)(F)F)nc3)n2)[C@H](C#N)C1 (single isomer, unassigned) [Example 28-27, 1-[(1R,2R,4S or 1S,2S,4R)-2-cyano-4-(dimethylamino)cyclohexyl]-3-{[6-(trifluoromethyl)pyridin-3-yl]amino}-1H-pyrazole-4-carboxamide]",800
9,"N#C[C@H]1C[C@@H](OCC2CC2)CC[C@@H]1n1cc(C(N)=O)c(Nc2ccc(F)cc2)n1 (single isomer, unassigned) [Example 26-9, 1-[(1S,2S,4S or 1R,2R,4R)-2-cyano-4-(cyclopropylmethoxy)cyclohexyl]-3-[(4-fluorophenyl)amino]-1H-pyrazole-4-carboxamide]",33
10,"N#C[C@H]1CCCC[C@@H]1n1cc(C(N)=O)c(Nc2ccc(S(=O)(=O)N3CCOCC3)cc2)n1 (single isomer, unassigned) [Example 17-99, 1-[(1R,2R or 1S,2S)-2-cyanocyclohexyl]-3-{[4-(morpholin-4-ylsulfonyl)phenyl]amino}-1H-pyrazole-4-carboxamide]",1
11,"CC1(N[C@H]2CCC(n3cc(C(N)=O)c(Nc4ccc(Cl)cc4)n3)[C@@H](C#N)C2)COC1 (single isomer, unassigned) [Example 28-207, 3-[(4-chlorophenyl)amino]-1-{(1S,2S,4S or 1R,2R,4R)-2-cyano-4-[(3-methyloxetan-3-yl)amino]cyclohexyl}-1H-pyrazole-4-carboxamide]",22
12,"C[C@H](N[C@@H]1CC[C@H](n2cc(C(N)=O)c(Nc3ccc(C(F)(F)F)nc3)n2)[C@@H](C#N)C1)C1CC1 (single isomer, unassigned) [Example 28-19, 1-[(1S,2S,4R or 1R,2R,4S)-2-cyano-4-{[(1S)-1-cyclopropylethyl]amino}cyclo-hexyl]-3-{[6-(trifluoromethyl)pyridin-3-yl]amino}-1H-pyrazole-4-carboxamide]",675
13,"CC(C)(c1ccc(Nc2nn([C@H]3CCCC[C@@H]3C#N)cc2C(N)=O)cc1F)[C@H](O)C(F)(F)F (single isomer, unassigned) [Example 17-32, 1-[(1S,2S or 1R,2R)-2-cyanocyclohexyl]-3-({3-fluoro-4-[(2S or 2R)-3,3,3-trifluoro-2-hydroxy-1,1-dimethylpropyl]phenyl}amino)-1H-pyrazole-4-carboxamide]",11
14,"CC(C)(C)N[C@H]1CCC(n2cc(C(N)=O)c(Nc3ccccc3)n2)[C@@H](C#N)C1 (single isomer, unassigned) [Example 28-215, 1-[(1S,2S,4S or 1R,2R,4R)-4-(tert-butylamino)-2-cyanocyclohexyl]-3-(phenylamino)-1H-pyrazole-4-carboxamide]",28
15,"N#C[C@H]1CCCC[C@@H]1n1cc(C(N)=O)c(Nc2ccc(C=O)cc2)n1 (single isomer, unassigned) [Example 17-25, 1-[(1S,2S or 1R,2R)-2-cyanocyclohexyl]-3-[(4-formylphenyl)amino]-1H-pyrazole-4-carboxamide]",3
16,"N#C[C@H]1C[C@@H](OC(=O)Nc2ccccc2)CCC1n1cc(C(N)=O)c(Nc2ccc(F)cc2)n1 (mixture of isomers) [Example 34-1, (1S,3S,4S and 1R,3R,4R)-4-{4-Carbamoyl-3-[(4-fluorophenyl)amino]-1H-pyrazol-1-yl}-3-cyanocyclohexyl phenylcarbamate]",107
17,"N#C[C@H]1CCCC[C@@H]1n1cc(C(N)=O)c(Nc2cccnc2)n1 (racemic) [Example 17-13, 1-[(1S,2S and 1R,2R)-2-cyanocyclohexyl]-3-(pyridin-3-ylamino)-1H-pyrazole-4-carboxamide]",36
18,"CCS(=O)(=O)c1ccc(Nc2nn(C3CCCC[C@@H]3C#N)cc2C(N)=O)cc1 (mixture of isomers) [Example 17-10, 1-[(1S,2S and 1R,2R)-2-cyanocyclohexyl]-3-{[4-(ethylsulfonyl)phenyl]amino}-1H-pyrazole-4-carboxamide]",4
19,"N#C[C@@H]1C[C@H](C(=O)NC2CCC2)CC[C@H]1n1cc(C(N)=O)c(Nc2ccc(Cl)cc2)n1 (single isomer, unassigned) [Example 35-11, 3-[(4-chlorophenyl)amino]-1-[(1R,2R,4R or 1S,2S,4S)-2-cyano-4-(cyclobutylcarbamoyl)cyclohexyl]-1H-pyrazole-4-carboxamide]",78
20,"N#C[C@@H]1CCCC[C@H]1n1cc(C(N)=O)c(Nc2ccc(S(=O)(=O)C(F)F)cc2)n1 (single isomer, unassigned) [Example 43-6, 1-[(1S,2S or 1R,2R)-2-cyanocyclohexyl]-3-({4-[(difluoromethyl)sulfonyl]phenyl}amino)-1H-pyrazole-4-carboxamide]",2
21,"CN(C(C1CC1)C1CC1)[C@H]1CC[C@H](n2cc(C(N)=O)c(Nc3ccc(S(=O)(=O)C(F)(F)F)cc3)n2)[C@@H](C#N)C1 (single isomer, unassigned) [Example 28-178, 1-{(1S,2S,4S or 1R,2R,4R)-2-cyano-4-[(dicyclopropyl-methyl)(methyl)amino]cyclo-hexyl}-3-({4-[(trifluoromethyl)sulfonyl]phen-yl}amino)-1H-pyrazole-4-carboxamide]",2
22,"N#C[C@H]1CCCC[C@@H]1n1cc(C(N)=O)c(Nc2ccc(S(=O)(=O)Nc3ccc4cccnc4c3)cc2)n1 (single isomer, unassigned) [Example 17-94, 1-[(1R,2R or 1S,2S)-2-cyanocyclohexyl]-3-{[4-(quinolin-7-ylsulfamoyl)phenyl]amino}-1H-pyrazole-4-carboxamide]",33
23,"N#C[C@@H]1C[C@H](OCC2CC2)CC[C@H]1n1cc(C(N)=O)c(Nc2ccc([C@@H](O)C(F)(F)F)cc2)n1 (single isomer, unassigned) [Example 26-8, 1-[(1R,2R,4R or 1S,2S,4S)-2-cyano-4-(cyclopropylmethoxy)cyclohexyl]-3-({4-[(1R or 1S)-2,2,2-trifluoro-1-hydroxyethyl]phenyl}amino)-1H-pyrazole-4-carboxamide]",19
24,"C[C@@H](N[C@H]1CC[C@H](n2cc(C(N)=O)c(Nc3ccc(S(=O)(=O)C(F)(F)F)cc3)n2)[C@@H](C#N)C1)C1CC1 (single isomer, unassigned) [Example 28-182, 1-[(1S,2S,4S or 1R,2R,4R)-2-cyano-4-{[(1R)-1-cyclopropylethyl]amino}cyclo-hexyl]-3-({4-[(trifluoromethyl)sulfonyl]phen-yl}amino)-1H-pyrazole-4-carboxamide]",12
25,"CC(C)(C)OC(=O)NC1CC[C@@H](C#N)C(n2cc(C(N)=O)c(Nc3ccc(F)cc3)n2)C1 (mixture of isomers) [Example 11-4, tert-butyl [(3R,4S and 3S,4R)-3-{4-carbamoyl-3-[(4-fluorophenyl)amino]-1H-pyrazol-1-yl}-4-cyanocyclohexyl]carbamate]",20
26,"CN(C)[C@@H]1CC[C@H](n2cc(C(N)=O)c(Nc3ccc(C(F)(F)F)nc3)n2)[C@@H](C#N)C1 (single isomer, unassigned) [Example 28-25, 1-[(1S,2S,4R or 1R,2R,4S)-2-cyano-4-(dimethylamino)cyclohexyl]-3-{[6-(trifluoromethyl)pyridin-3-yl]amino}-1H-pyrazole-4-carboxamide]",155
27,"CN(C)[C@H]1CC[C@H](n2cc(C(N)=O)c(Nc3ccc(C(F)(F)F)cc3)n2)[C@@H](C#N)C1 (single isomer, unassigned) [Example 28-188, 1-[(1S,2S,4S or 1R,2R,4R)-2-cyano-4-(dimethylamino)cyclohexyl]-3-{[4-(trifluoromethyl)phenyl]amino}-1H-pyrazole-4-carboxamide]",14
